In patent publication US10501451B2, “Selective NR2B antagonists” (BRISTOL-MYERS SQUIBB COMPANY, priority 2015, dated 2019) one finds concentration and IC50 data, which are given here for one compound.

SMILES strings stand for the structures. Where two headings read alike, the source gives them in different places.

Data set [1] is described as follows: Drug levels in blood plasma and homogenized brain tissue by mass spectroscopy. In kind it is in vivo. The note with it: iv, mouse; for concentration at 15 min: male, 3 mg/Kg i.v., occupancy study. The protocol: Ex Vivo Occupancy Assay. […] 7-9 weeks old male CD-1 mice were dosed intravenously in a vehicle consisting of 10% dimethylacetamide, 40% PEG-400, 30% hydroxypropyl betacyclodextrin, and 30% water with experimental compounds and the forebrains were harvested 15 minutes post-dosing by decapitation. The brain samples were immediately snap-frozen and stored at −80° C. On the following day, the dosed brain samples were thawed on ice for 15-20 minutes followed by homogenization using Polytron for 10 seconds in cold homogenization buffer composed of 50 mM KH2PO4 (pH adjusted to 7.4 with KOH), 1 mM EDTA, 0.005% Triton X 100 and protease inhibitor cocktail (Sigma Aldrich). The crude homogenates were further homogenized using a Dounce homogenizer and the homogenized membrane aliquots from all animals were flash-frozen and stored at −80° C. until further use. The whole homogenization process was performed on ice. For determining occupancy, the membrane homogenates were first thawed on ice and then needle-homogenized using a 25 gauge needle. The homogenized membrane (6.4 mg/ml) was added to a 96-well plate followed by addition of ^3H Ro 25-6981 (6 nM). The reaction mixture was incubated for 5 minutes on a shaker at 4° C. and then harvested onto GF/B filter plates (treated with 0.5% PEI for 1 hr at room temperature). The filter plates were dried at 50° C. for 20 mins, incubated with microscint 20 for 10 minutes and read on TopCount (Perkin Elmer). Each dose or compound group consisted of 4-5 animals. The control group of animals was dosed with vehicle alone. Membrane from each animal was added in triplicates to the assay plate. Non-specific binding was determined using 10 μM Ro 25-6981 added to the wells containing membrane homogenates from vehicle-dosed animals. […]
Drug levels were determined by mass spectroscopy in the usual manner. […]
Mouse Forced Swim Test (mFST). […] The duration of immobility was evaluated during the total 6 min of the test and expressed as duration (sec) of immobility. […]

For the next data set, the target named is hERG channels (Homo sapiens (Human), UniProt Q12809). Nature of the data set: hERG electrophysiology assay (patch clamp). In kind it is cell-based. Particulars: HEK 293 cells stably expressing hERG channels, tail current. How it is done: hERG Electrophysiology Assay. The experimental compounds were assessed for hERG activity on HEK 293 cells stably expressing hERG channels using patch clamp technique. Coverslips plated with hERG expressing cells were placed in the experimental chamber and were perfused with a solution composed of (in mM): 140 NaCl, 4 KCl, 1.8 CaCl2, 1 MgCl2, 10 Glucose, 10 HEPES (pH 7.4, NaOH) at room temperature. Borosilicate patch pipettes had tip resistances of 2-4 Mohms when filled with an internal solution containing: 130 KCl, 1 MgCl2, 1 CaCl2, 10 EGTA, 10 HEPES, 5 ATP-K2 (pH 7.2, KOH). The cells were clamped at −80 mV in whole cell configuration using an Axopatch 200B (Axon instruments, Union City, Calif.) patch clamp amplifier controlled by pClamp (Axon instruments) software. […] First, tail currents were recorded in presence of extracellular solution alone (control) and subsequently, in extracellular solution containing increasing compound concentrations. […] The percentage inhibition at each concentration was calculated as reduction in peak tail current with respect to the peak tail current recorded in the presence of control solution. […]
Sequence of hERG channels (Q12809 whole entry, the tested form may be a part): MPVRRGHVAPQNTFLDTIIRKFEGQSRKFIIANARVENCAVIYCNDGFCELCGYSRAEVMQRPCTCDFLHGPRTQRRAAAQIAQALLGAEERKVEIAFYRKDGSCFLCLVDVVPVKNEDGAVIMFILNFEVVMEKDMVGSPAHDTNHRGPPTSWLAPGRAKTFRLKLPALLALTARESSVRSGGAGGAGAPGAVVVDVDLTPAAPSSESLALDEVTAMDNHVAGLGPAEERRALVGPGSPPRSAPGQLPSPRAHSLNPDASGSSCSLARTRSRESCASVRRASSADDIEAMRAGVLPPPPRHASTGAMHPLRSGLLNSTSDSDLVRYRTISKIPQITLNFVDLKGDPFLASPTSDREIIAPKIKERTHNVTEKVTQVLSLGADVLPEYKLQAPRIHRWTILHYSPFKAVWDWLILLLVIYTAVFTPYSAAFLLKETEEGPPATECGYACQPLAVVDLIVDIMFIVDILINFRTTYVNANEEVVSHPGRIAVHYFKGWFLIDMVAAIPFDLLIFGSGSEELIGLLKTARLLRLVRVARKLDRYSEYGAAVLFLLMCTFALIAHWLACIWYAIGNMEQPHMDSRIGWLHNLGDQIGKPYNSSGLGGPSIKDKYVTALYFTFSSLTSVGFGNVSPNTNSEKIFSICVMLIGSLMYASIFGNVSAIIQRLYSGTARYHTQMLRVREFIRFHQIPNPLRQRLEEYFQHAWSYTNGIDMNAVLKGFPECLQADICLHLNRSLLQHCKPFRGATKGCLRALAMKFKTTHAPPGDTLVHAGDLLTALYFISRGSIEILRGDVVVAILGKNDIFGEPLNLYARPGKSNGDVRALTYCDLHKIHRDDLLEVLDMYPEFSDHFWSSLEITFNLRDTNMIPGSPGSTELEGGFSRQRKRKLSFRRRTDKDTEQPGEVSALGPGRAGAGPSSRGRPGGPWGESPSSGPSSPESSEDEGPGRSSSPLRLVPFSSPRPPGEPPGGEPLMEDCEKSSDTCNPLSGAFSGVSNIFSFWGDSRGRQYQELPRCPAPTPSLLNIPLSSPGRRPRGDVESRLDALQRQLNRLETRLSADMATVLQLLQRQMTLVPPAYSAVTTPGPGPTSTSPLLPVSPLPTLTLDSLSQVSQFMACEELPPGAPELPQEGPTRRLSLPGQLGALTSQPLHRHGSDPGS

On to `Cc1ccc(CN2OCC(N3CCN(c4ccc(O)cn4)CC3)C2=O)cc1` (single isomer, unassigned) [Example 10, P-1, 4-(4-(5-hydroxypyridin-2-yl)piperazin-1-yl)-2-(4-methylbenzyl)isoxazolidin-3-one], for which the concentration at 15 min stood at 863 nM in data set [1] (CD-1, brain, read-out: drug levels in the homogenized brain tissue) and 572 nM in data set [1] (CD-1, plasma, read-out: Drug levels in the blood plasma). The same compound came in with a concentration at 21 min in data set [1] (plasma, 1 mg/Kg i.v., at end of forced swim test) of 207 nM. Moreover, on hERG channels, it took 30 µM to reach half-maximal inhibition (IC50).
